Where two headings read alike, the source gives them in different places.
Tests used:
Assay type in all cases: cell-based
[1] = system: T47D (PI3Kα H1047R mutant) cells; assay: Inhibition of pAKT formation, alphaLISA SureFire Ultra AKT 1/2/3 (pS473), T47D cells; details: Homo sapiens, T47D, T47D (PI3Kα H1047R mutant) cells; inhibition of pAKT (pS473) formation; approximately one hour or 24 hours treatment; read-out: T47D pAKT (H1047R mutant) IC50
Outline: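 T47D cells (12,000/well) in HBSS were dosed with compound at 10 concentrations (10.4 μM top, 1:4 dilutions) for about 1 h or 24 h at 37 °C, then lysed. pS473 AKT was read by alphaLISA. Signals were normalized to alpelisib and DMSO controls, and IC50 came from a four-parameter fit.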

[2] = system: T47D (PI3Kα H1047R mutant) cells; assay: CellTiter-Glo 2.0 luminescent cell viability assay, 72 hours, T47D cells; details: T47D (PI3Kα H1047R mutant) cells, CellTiter-Glo, approximately 72 hours, read-out: T47D (H1047R mutant) Viability IC50
Outline: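 Cells seeded at 1000 per well overnight were dosed with a 10-concentration, 1:4 series starting at 10 µM and incubated ~72 h at 37° C. Viability was read by CellTiter-Glo 2.0 luminescence after 30 min at room temperature. IC50 came from four-parameter fits of percent vehicle control.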

[3] = system: SKBR3 (PI3Kα wild type) cells; assay: CellTiter-Glo 2.0 luminescent cell viability assay, 72 hours, SKBR3 cells; details: SKBR3 (PI3Kα wild type) cells, CellTiter-Glo, approximately 72 hours, read-out: SKBR3 (WT) Viability IC50
Outline: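 Viability measured via CTG luminescence following roughly 72 hours of compound exposure at 37° C. Dosing used a 10 um starting concentration diluted 1:4 over 10 points; percent-of-vehicle data fitted with a variable-slope four-parameter model for IC50.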

IC50 [1]	IC50 ([2]; Homo sapiens, T47D, 72 h)	IC50 ([3]; Homo sapiens, SK-BR-3, 72 h)	IC50 [2]	IC50 [3]	Structure (SMILES)
2.19 nM	57.4 nM	> 10000 nM			Cc1cc([C@@H](C)Nc2ccccc2C(=O)O)c2nc(NC3CC(F)(F)C3)c(C#N)c(=O)n2c1 [Example 10-37, (R)-2-((1-(3-cyano-2-((3,3-difluorocyclobutyl)amino)-7-methyl-4-oxo-4H-pyrido[1,2-a]pyrimidin-9-yl)ethyl)amino)benzoic acid]
3.13 nM	107 nM	> 10000 nM			Cc1cc([C@@H](C)Nc2ccccc2C(=O)O)c2nc(N3CCN(CC(F)(F)F)CC3)c(C)c(=O)n2c1 [Example 10-125, (R)-2-((1-(3,7-dimethyl-4-oxo-2-(4-(2,2,2-trifluoroethyl)piperazin-1-yl)-4H-pyrido[1,2-a]pyrimidin-9-yl)ethyl)amino)benzoic acid]
0.425 nM	13.6 nM	2190 nM			Cc1cc([C@@H](C)Nc2ccc(C)nc2C(=O)O)c2nc(N3Cc4ccccc4C3)c(C#N)c(=O)n2c1 [Example 10-5, (R)-3-((1-(3-cyano-2-(isoindolin-2-yl)-7-methyl-4-oxo-4H-pyrido[1,2-a]pyrimidin-9-yl)ethyl)amino)-6-methylpicolinic acid]
2.27 nM	38.5 nM	9890 nM			Cc1cc([C@@H](C)Nc2ccccc2C(=O)O)c2nc(N3CCN(c4ccc(C#N)cc4)CC3)c(C)c(=O)n2c1 [Example 10-1, (R)-2-((1-(2-(4-(4-cyanophenyl)piperazin-1-yl)-3.7-dimethyl-4-oxo-4H-pyrido[1,2-a]pyrimidin-9-yl)ethyl)amino)benzoic acid]
3.62 nM			55 nM	> 10000 nM	Cc1cc([C@@H](C)Nc2ccc(Cl)nc2C(=O)O)c2nc(N3Cc4ccccc4C3)c(C)c(=O)n2c1 [Example 10-30, (R)-6-chloro-3-((1-(2-(isoindolin-2-yl)-3,7-dimethyl-4-oxo-4H-pyrido[1,2-a]pyrimidin-9-yl)ethyl)amino)picolinic acid]
2.98 nM	79 nM	> 10000 nM			Cc1cc([C@@H](C)Nc2ccccc2C(=O)O)c2nc(N3CCN(C(=O)C4CCCC4)CC3)c(C)c(=O)n2c1 [Example 10-84, (R)-2-((1-(2-(4-(cyclopentanecarbonyl)piperazin-1-yl)-3,7-dimethyl-4-oxo-4H-pyrido[1,2-a]pyrimidin-9-yl)ethyl)amino)benzoic acid]
2.21 nM	74 nM	> 10000 nM			COC1(C)CCN(c2nc3c([C@@H](C)Nc4ccccc4C(=O)O)cc(C)cn3c(=O)c2C#N)CC1 [Example 10-78, (R)-2-((1-(3-cyano-2-(4-methoxy-4-methylpiperidin-1-yl)-7-methyl-4-oxo-4H-pyrido[1,2-a]pyrimidin-9-yl)ethyl)amino)benzoic acid]
2.89 nM	93.6 nM	> 10000 nM			Cc1cc([C@@H](C)Nc2ccccc2C(=O)O)c2nc(N3CCC4(CC4)C(F)(F)C3)c(C#N)c(=O)n2c1 [Example 10-108, (R)-2-((1-(3-cyano-2-(4,4-difluoro-6-azaspiro[2.5]octan-6-yl)-7-methyl-4-oxo-4H-pyrido[1,2-a]pyrimidin-9-yl)ethyl)amino)benzoic acid]
2.58 nM	98.5 nM	> 10000 nM			Cc1cc([C@@H](C)Nc2ccccc2C(=O)O)c2nc(N3CCC(F)(F)CC3)c(Cl)c(=O)n2c1 [Example 10-114, (R)-2-((1-(3-chloro-2-(4,4-difluoropiperidin-1-yl)-7-methyl-4-oxo-4H-pyrido[1,2-a]pyrimidin-9-yl)ethyl)amino)benzoic acid]
2.6 nM	78.5 nM	7910 nM			Cc1cc([C@@H](C)Nc2ccccc2C(=O)O)c2nc(N3CCN(C(=O)c4ccc(Cl)cc4)CC3)c(C)c(=O)n2c1 [Example 10-82, (R)-2-((1-(2-(4-(4-chlorobenzoyl)piperazin-1-yl)-3,7-dimethyl-4-oxo-4H-pyrido[1,2-a]pyrimidin-9-yl)ethyl)amino)benzoic acid]
2.05 nM	87.2 nM	8760 nM			Cc1cc([C@@H](C)Nc2ccccc2C(=O)O)c2nc(C3CCN(c4ccc(C#N)cc4)CC3)c(C#N)c(=O)n2c1 [Example 10-103, (R)-2-((1-(3-cyano-2-(1-(4-cyanophenyl)piperidin-4-yl)-7-methyl-4-oxo-4H-pyrido[1,2-a]pyrimidin-9-yl)ethyl)amino)benzoic acid]
1.38 nM	111 nM	> 10000 nM			Cc1cc([C@@H](C)Nc2ccccc2C(=O)O)c2nc(N3CC[C@@H]3C)c(C#N)c(=O)n2c1 (single isomer, unassigned) [Example 10-95]
4.35 nM	77.2 nM	> 10000 nM			Cc1cc([C@@H](C)Nc2ccccc2C(=O)O)c2nc(N3CC[C@@H]3CF)c(C#N)c(=O)n2c1 (single isomer, unassigned) [Example 10-53]
3.8 nM	107 nM	> 10000 nM			Cc1cc([C@@H](C)Nc2ccccc2C(=O)O)c2nc(N3CCN(c4ccc(C#N)cc4C)CC3)c(C)c(=O)n2c1 [Example 10-77, (R)-2-((1-(2-(4-(4-cyano-2-methylphenyl)piperazin-1-yl)-3,7-dimethyl-4-oxo-4H-pyrido[1,2-a]pyrimidin-9-yl)ethyl)amino)benzoic acid]
1.86 nM	48.8 nM	> 10000 nM			Cc1cc([C@@H](C)Nc2ccccc2C(=O)O)c2nc(N3CCN(c4cccnc4C#N)CC3)c(C)c(=O)n2c1 [Example 10-131, (R)-2-((1-(2-(4-(2-cyanopyridin-3-yl)piperazin-1-yl)-3,7-dimethyl-4-oxo-4H-pyrido[1,2-a]pyrimidin-9-yl)ethyl)amino)benzoic acid]
2.04 nM	85.2 nM	> 10000 nM			Cc1cc([C@@H](C)Nc2ccccc2C(=O)O)c2nc(N3CC4CCC3CC4)c(C#N)c(=O)n2c1 [Example 10-97, (R)-2-((1-(2-(2-azabicyclo[2.2.2]octan-2-yl)-3-cyano-7-methyl-4-oxo-4H-pyrido[1,2-a]pyrimidin-9-yl)ethyl)amino)benzoic acid]
2.11 nM	66.4 nM	> 10000 nM			Cc1cc([C@@H](C)Nc2ccccc2C(=O)O)c2nc(N(C)C3CC(F)(F)C3)c(C#N)c(=O)n2c1 [Example 10-49, (R)-2-((1-(3-cyano-2-((3,3-difluorocyclobutyl)(methyl)amino)-7-methyl-4-oxo-4H-pyrido[1,2-a]pyrimidin-9-yl)ethyl)amino)benzoic acid]
3.77 nM	80.3 nM	> 10000 nM			Cc1cc([C@@H](C)Nc2ccccc2C(=O)O)c2nc(N3CC4CC3C(F)(F)C4)c(C#N)c(=O)n2c1 (stereo partly drawn) [Example 10-88, 2-(((1R)-1-(3-cyano-2-(6,6-difluoro-2-azabicyclo[2.2.1]heptan-2-yl)-7-methyl-4-oxo-4H-pyrido[1,2-a]pyrimidin-9-yl)ethyl)amino)benzoic acid]

Structure (SMILES)	IC50 [1]	IC50 ([2]; Homo sapiens, T47D, 72 h)	IC50 ([3]; Homo sapiens, SK-BR-3, 72 h)	IC50 [2]	IC50 [3]
Cc1cc([C@@H](C)Nc2ccccc2C(=O)O)c2nc(N3CC4CC(C4)C3)c(C)c(=O)n2c1 [Example 10-124, (R)-2-((1-(2-(3-azabicyclo[3.1.1]heptan-3-yl)-3,7-dimethyl-4-oxo-4H-pyrido[1,2-a]pyrimidin-9-yl)ethyl)amino)benzoic acid]	1.59 nM	105 nM	> 10000 nM		

— patent publication US20260078120A1, “SUBSTITUTED PYRIDOPYRIMIDINONES” (MIRATI THERAPEUTICS, INC., priority 2022, published 2026)
